Reference: EP4707279A1, “SUBSTITUTED TRICYCLIC HETEROCYCLIC COMPOUND AS PHARMACEUTICAL FOR TREATMENT OR PREVENTION OF COVID-19” (priority 2023, dated 2024)

Each compound was assayed on SARS-CoV-2 (assay: CPE inhibition assay, anti-SARS-CoV-2 virus activity in vitro (Test Example 4)). Settings: CPE inhibition at 10 µM; VeroE6-TMPRSS2 cells; MOI 0.01; third day post infection; average of three tests.
Format: cell-based
In the case of CCOC(=O)[C@@H]1CCC2=C3N(Cc4ccccc4)C(=O)N(Cc4ccccc4)C(=O)N3[C@H](Cc3ccccc3)C(=O)N21 [Compound 1B, Ethyl (6R,9S)-1,3,6-tribenzyl-2,4,7-trioxo-1,3,4,6,7,9,10,11-octahydro-2H-pyrrolo[2',1':3,4]pyridazine[1,2-a][1,3,5]triazine-9-carboxylate], the “Anti SARS-CoV-2 activity” value is reported as “C (less than 1%)”.
O=C(O)[C@@H]1CC[C@H]2N1C(=O)[C@@H](Cc1ccccc1)N1C(=O)N(Cc3ccccc3)C(=O)N(Cc3ccccc3)[C@]21O [Compound 1C, (6R,9S,11aR,11bR)-1,3,6-Tribenzyl-11b-hydroxy-2,4,7-trioxo-2H-pyrrolo[2',1':3,4]pyridazino[1,2-a][1,3,5] triazine-9-carboxylic acid] was tested, and the “Anti SARS-CoV-2 activity” value was “C (less than 1%)”.
O=C1[C@@H](Cc2ccccc2)N2C(=O)N(Cc3ccccc3)C(=O)N(Cc3ccccc3)[C@]2(O)[C@H]2CC[C@@H](CNCc3ccc4ccccc4c3)N12 [Compound 1F, (6R,9S,11aR,11bR)-1,3,6-Tribenzyl-11b-hydroxy-9-(((naphthalen-2-ylmethyl)amino)methyl)hexahydro-2H-pyrrolo[2',1':3,4]pyridazine[1,2-a][1,3,5]triazine-2,4,7(3H,6H)-trione] was tested, and the “Anti SARS-CoV-2 activity” value was “C (less than 1%)”.
With CC(C)[C@@H]1C(=O)N2[C@H](C3=NCc4cn(-c5c[nH]c6ccccc56)c5cccc3c45)CC[C@@H]2[C@@]2(O)N(Cc3ccccc3)C(=O)N(Cc3ccccc3)C(=O)N12 [Compound 3H, (6R,95,11aR,11bR)-9-(1-((1H-indole-3-yl))-1,3-dihydropyrrolo[4,3,2-de]isoquinolin-5-yl)-1,3-dibenzyl-11b-hydroxy-6-isopropylhexahydro-2H-pyrrolo [2',1':3,4]pyridazine [1,2-a][1,3,5] triazine-2,4,7 (3H. 6H)-trione] the “Anti SARS-CoV-2 activity” value was “A (a CPE inhibition effect of 5% or more)”.
For O=C(NCc1ccc2ccccc2c1)[C@@H]1CC[C@H]2N1C(=O)[C@@H](Cc1ccccc1)N1C(=O)N(CC3CCCC3)C(=O)N(CC3CCCC3)[C@]21O [Compound 17D, (6R,9S,11aR,11bR)-6-Benzyl-1,3-bis (cyclopentylmethyl)-11b-h ydroxy-N-(naphthalen-2-ylmethyl)-2,4,7-trioxodecahydro-2H-pyrrolo[2',1':3,4] pyridazino[1,2-a][1,3,5] triazine-9-carboxamide], the “Anti SARS-CoV-2 activity” value was “A (a CPE inhibition effect of 5% or more)”.
CC(C)OC(=O)[C@@H]1CC[C@H]2N1C(=O)[C@@H](Cc1ccccc1)N1C(=O)N(Cc3cccs3)C(=O)N(Cc3cccs3)[C@]21O [Compound 18G, Isopropyl (6R,9S,11aR,11bR)-6-benzyl-11b-hydroxy-2,4,7-trioxo-1,3-bis(thiophen-2-ylmethyl)decahydro-2H-pyrrolo [2',1':3,4]pyridazine[1,2-a][1,3,5]triazine-9-carboxylate] was tested, and the “Anti SARS-CoV-2 activity” value was “A (a CPE inhibition effect of 5% or more)”.
In the case of CCN(C(=O)NCCCN(C)C)C(=O)[C@@H]1CC[C@H]2N1C(=O)[C@@H](Cc1ccccc1)N1C(=O)N(Cc3cccs3)C(=O)N(Cc3cccs3)C21O (stereo partly drawn) [Compound 18H, (6R,9S,11aR)-6-benzyl-N-((3-(dimethylamino)propyl)carbamoil)-N-ethyl-11b-Hydroxy-2,4,7-trioxo-1,3-bis(thiophen-2-ylmethyl)decahydro-2H-pyrrolo[2',1':3,4] pyrazino[1,2-a][1,3,5]triazine-9-carboxamide], the “Anti SARS-CoV-2 activity” value is reported as “A (a CPE inhibition effect of 5% or more)”.
With Cc1noc([C@@H]2CC[C@H]3N2C(=O)[C@@H](Cc2ccccc2)N2C(=O)N(Cc4cccs4)C(=O)N(Cc4cccs4)C32O)n1 (stereo partly drawn) [Compound 18I, (6R,9S,11aR)-6-benzyl-11b-hydroxy-9-(3-methyl-1,2,4-oxadiazol-5-yl)-1,3-bis(thiophen-2-ylmethyl)hexahydro-2H-pyrrolo[2',1':3,4]pyridazine[1,2-a][1,3,5]triazine-2,4,7(3H,6H)-trione] the “Anti SARS-CoV-2 activity” value was “B (a CPE inhibition effect of less than 5% but 1% or more)”.

Same assay, conditions: Severe acute respiratory syndrome coronavirus 2, VeroE6/TMPRSS2, 72 h, read-out: Anti SARS-CoV-2 activity
Compound CCOC(=O)[C@@H]1CCC2=C3N(Cc4ccccc4)C(=O)N(Cc4ccccc4)C(=O)N3[C@H](Cc3ccccc3)C(=O)N21 (stereo in doubt) [Compound 4B, Ethyl (6R,9S)-1,3,6-tribenzyl-2,4,7-trioxo-1,3,4,6,7,9,10,11-octahydro-2H-pyrrolo[2',1':3,4] pyrazino[1,2-a][1,3,5]triazine-9-carboxylate] has an inhibition at 10 µM of over 5%.
CCOC(=O)[C@@H]1CC[C@H]2N1C(=O)[C@@H](Cc1ccccc1)N1C(=O)N(Cc3ccccc3)C(=O)N(Cc3ccccc3)[C@]21O [Compound 1A, Ethyl (6R,9S,11aR,11bR)-1,3,6-tribenzyl-11b-hydroxy-2,4,7-trioxodecahydro-2H-pyrrolo[2',1':3,4]pyrazino[1,2-a][1,3,5]triazine-9-carboxylate] was tested, and the inhibition at 10 µM was under 1%.
With O=C(NCc1ccc2ccccc2c1)[C@@H]1CCC2=C3N(Cc4ccccc4)C(=O)N(Cc4ccccc4)C(=O)N3[C@H](Cc3ccccc3)C(=O)N21 [Compound 1E, (6R,9S)-1,3,6-Tribenzyl-N-(naphthalen-2-ylmethyl)-2,4,7-trioxo-1,3,4,6,7,9,10,11-octahydro-2H-pyrrolo[2',1':3,4] pyrazino[1,2-a][1,3,5]triazine-9-carboxamide] the inhibition at 10 µM was under 1%.
Work on CCOC(=O)[C@@H]1CCC2=C3N(Cc4ccccc4)C(=O)N(Cc4ccccc4)C(=O)N3[C@H](C(C)C)C(=O)N21 [Compound 3B, Ethyl (6R.9S) 1,3-dibenzyl 6 isopropyl-2.4.7 trioxo-1,3,4,6,7,9,10,11-octahydro 2H-pyrrolo[2',1':3.4]pyrazi no[1,2 a][1,3,5] triazine 9 carboxylate] yielded an inhibition at 10 µM of over 5%.
CC(C)[C@@H]1C(=O)N2[C@H](C(=O)NCc3ccccc3)CC[C@@H]2[C@@]2(O)N(Cc3ccccc3)C(=O)N(Cc3ccccc3)C(=O)N12 [Compound 3F, (6R,9S,11aR,11bR)-N,1,3-tribenzyl-11b-hydroxy-6-isopropyl-2,4,7-trioxodecahydro-2H-pyrrolo[2',1':3,4]pyrazino[1,2-a][1,3,5]triazine-9-carboxamide] gave an inhibition at 10 µM of over 5%.
Work on O=C(NCc1ccc2ccccc2c1)[C@H]1CCC2=C3N(Cc4ccccc4)C(=O)N(Cc4ccccc4)C(=O)N3[C@@H](Cc3ccccc3)C(=O)N21 [Compound 4E, (6S,9R)-1,3,6-Tribenzyl-N-(naphthalen-2-ylmethyl)-2,4,7-trioxo-1,3,4,6,7,9,10,1 1-octahydro-2H-pyrrolo [2',1':3,4]pyrazino[1,2-a] [1,3,5]triazine-9-carboxamide] yielded an inhibition at 10 µM of 1 to 5%.
Compound CCOC(=O)[C@@H]1CC[C@H]2N1C(=O)[C@@H](Cc1ccc3ccccc3c1)N1C(=O)N(Cc3ccccc3)C(=O)N(Cc3ccccc3)[C@]21O [Compound 7A, Ethyl (6R,9S,11aR,11bR)-1,3-dibenzyl-11b-hydroxy-6-(naphthalen-2-ylmethyl)-2,4,7-trioxodecahydro-2H-pyrrolo[2',1' :3,4]pyrazino[1,2-a][1,3,5]triazine-9-carboxylate] has an inhibition at 10 µM of under 1%.
O=C(NCc1ccc2ccccc2c1)[C@@H]1CCC2=C3N(Cc4ccccc4)C(=O)N(Cc4ccccc4)C(=O)N3[C@H](Cc3ccc4ccccc4c3)C(=O)N21 [Compound 7E, (6R,9S)-1,3-Dibenzyl-N,6-Bis(naphthalen-2-ylmethyl) -2,4,7-trioxo-1,3,4,6,7,9,10, 11-octahydro-2H-pyrrolo [2',1':3,4]pyrazino[1,2-a] [1,3,5]triazine-9-carboxamide] gave an inhibition at 10 µM of 1 to 5%.
O=C(NCc1ccc2ccccc2c1)[C@@H]1CCC2=C3N(Cc4ccccc4)C(=O)N(Cc4ccccc4)C(=O)N3[C@H](CC3CCCC3)C(=O)N21 [Compound 8E, (6R,9S)-1,3-Dibenzyl-6-(cyclopentylmethyl)-N-(naphthalen-2-ylmethyl)-2,4,7-trioxo-1,3,4,6,7,9,10,11-octahydro-2H-pyrrolo [2',1':3,4]pyrazino[1,2-a] [1,3,5]triazine-9-carboxamide] was tested, and the inhibition at 10 µM was under 1%.
For O=C1[C@@H](Cc2ccccc2)N2C(=O)N(Cc3ccccc3)C(=O)N(Cc3ccccc3)C2=C2CCCN12 [Compound 9B, (R) 1.3.6-Tribenzyl-1,9,10,11-tetrahydro-2H-pyrrolo[2',1':3,4] pyridazino[1,2-a][1,3,5]triazine-2,4,7(3H,6H)-trione], the inhibition at 10 µM was under 1%.
O=C1[C@H](Cc2ccccc2)N2C(=O)N(Cc3ccccc3)C(=O)N(Cc3ccccc3)C2=C2C[C@@H](OCc3ccccc3)CN12 [Compound 11B, (6S,10R)-1,3,6-Tribenzyl-10-(benzoxy)-1,9,10,11-tetrahydro-2 H-pyrrolo[2',1':3,4]pyridazino [1,2-a][1,3,5]triazine-2,4,7 (3H,6H)-trione] was tested, and the inhibition at 10 µM was over 5%.
In the case of O=C1[C@@H](Cc2ccccc2)N2C(=O)N(Cc3ccccc3)C(=O)N(Cc3ccccc3)C2=C2CCCCN12 [Compound 13B, (R) 1,3,6-Tribenzyl-9,10,11,12-tetrahydropyrido[2',1':3,4] pyrazino[1,2-a][1,3,5]triazine-2,4,7(1H,3H,6H)-trione], the inhibition at 10 µM is reported as 1 to 5%.
For O=C1C(Cc2ccccc2)N2C(=O)N(Cc3ccccc3)C(=O)N(Cc3ccccc3)C2=C2C[C@@H](OCc3ccccc3)CN12 (stereo partly drawn) [Compound 15B, (6R,10R)-1,3,6-tribenzyl-10-(benzyloxy)-1,9,10,11-tetrahydro-2H-pyrrolo[2',1':3,4] pyridazino[1,2-a][1,3,5] triazine-2,4,7(3H,6H)-trione], the inhibition at 10 µM was under 1%.
For O=C(NCc1ccc2ccccc2c1)[C@@H]1CCC2=C3N(c4ccccc4)C(=O)N(c4ccccc4)C(=O)N3[C@H](Cc3ccccc3)C(=O)N21 [Compound 16E, (6R,9S)-6-Benzyl-N-(naphthalen-2-ylmethyl)-2,4,7-trioxo-1,3-diphenyl-1,3,4,6,7,9,10,11-octahydro-2H-pyrrolo [2',1':3,4]pyrazino[1,2-a][1,3,5]triazine-9-carboxamide], the inhibition at 10 µM was 1 to 5%.
CNC(=O)[C@@H]1CC[C@H]2N1C(=O)[C@@H](Cc1ccccc1)N1C(=O)N(Cc3cccs3)C(=O)N(Cc3cccs3)[C@]21O [Compound 18F, (6R,9S,11aR,11bR)-6-benzyl-11b-hydroxy-N-methyl-2,4,7-trioxo-1,3-bis(thiophen-2-ylmethyl)decahydro-2H-pyrrolo [2',1':3,4]pyrazino[1,2-a][1,3,5]triazine-9-carboxamide] showed an inhibition at 10 µM of 1 to 5%.
